From patent US20240002429A1, “PRODRUG OF 5a-HYDROXY-6ß-[2-(1H-IMIDAZOL-4-YL)ETHYLAMINO]CHOLESTAN-3ß-OL AND PHARMACEUTICAL COMPOSITIONS COMPRISING SAME FOR USE IN THE TREATMENT OF CANCER” (priority 2020, published 2024)
pIC50: −log10 of the molar value.

Assays:
[1] = target: T1, cholesterol epoxide hydrolase (ChEH) (Homo sapiens, UniProt Q15125); assay: Activity of cholesterol epoxide hydrolase (ChEH) in MCF-7 cells, [14C]5,6α-EC metabolization by TLC; assay type: cell-based; conditions: MCF-7, 1 μM, 24 h, [14C]5,6α-EC 0.6 μM
T1 construct: endogenous in cells; host or cells: MCF-7
Description: The compounds 5,6α-epoxycholesterol (5,6α-EC) and 5,6β-epoxycholesterol (5,6β-EC) are oxysterols involved in the anticancer pharmacology of tamoxifen, a widely used antitumor drug. They are both metabolized in cholestan-3β,5α,6β-triol (CT) by the enzyme cholesterol-5,6-epoxide hydrolase (ChEH), and CT is metabolized by the enzyme HSD11B2 (11β-hydroxysteroid dehydrogenase 2) to 6-oxo-cholestan-3β,5α-diol (OCDO), an oncosterone tumor promoter.
MCF-7 cells are in a cell culture medium identical to example 20 and are seeded in 6-well plates at 150000 cells per well with 3 wells per treatment condition. 24 h after seeding, the MCF-7 cells are treated with [^14C]5,6α-EC (stock solution 1000×: 0.6 mM; 20 μCi/μmol; final concentration 0.6 μM) alone or in combination with tamoxifen (tam). Tamoxifen is used as positive control of the study compounds. The treatment with the compound according to the invention is carried out at a concentration of 1 μM.
After 24 hours of treatment, the media are collected and lipid extracts are prepared from the cell pellets by extraction with 100 μL of chloroform, 400 μL of methanol and 300 μL of water. The lipid extracts are analyzed by thin-layer chromatography (TLC) using ethyl acetate (EtOAc) as eluent. The analysis is carried out using a plate reader and then by autoradiography.

[2] = Pharmacokinetic study of DX107 (LC/MS in plasma); assay type: in vivo; conditions: rat, oral 50 mg/kg, administered compound assayed; for Area under curve: 0-72 h
Description: The following study is determination by LC/MS in plasma of the various molecules over 3 days (11 measurement points at the end). The graphs are always presented in comparison with DX101, which is the reference. […]

[3] = test system: BT-474 human mammary tumor cells; assay: Cytotoxicity on BT-474 cells, LDH; assay type: cell-based; conditions: BT-474, LDH, 48 h; for Mean LogIC50 (±SEM): log of IC50 in μM; for pIC50: Homo sapiens, read-out: IC50
Description: For the second method, the percentage viability is determined using assay of the activity of the enzyme LDH (lactate dehydrogenase) in the cellular supernatants using the kit non radioactive cytotoxicity assay kit (Promega). LDH is an enzyme released in the supernatant of dead cells. The higher the LDH activity in the supernatant, the greater is the cell death. In this enzyme test, the LDH released converts a violet tetrazolium salt to formazan, of red color, absorbing at 490 nm. The intensity of the red color is proportional to the number of dead cells. After 48 h of treatment, the supernatants are transferred to a new 96-well plate and are incubated for 30 minutes in the presence of the substrate mix at room temperature. The reaction is stopped using the stop buffer and the absorbance is determined at 490 nm. The percentage cell death is determined here using a control 100% of maximum activity of LDH (carried out with untreated cells incubated in the presence of the lysis solution for 45 minutes at 37° C. just before adding the substrate mix), and the cellular viability in each well is then deduced from this percentage. IC50 is then determined as explained in the preceding paragraph.
(§1) The cellular viability tests were also carried out on BT-474 human mammary tumor cells (characterized as being positive triples HER2+, ER+, PR+). The BT-474 cells are in a cell culture medium identical to the preceding example and are seeded in 24-well plates at 70 000 cells per well, for determination of cellular viability using trypan blue, or in 96-well plates at 13 000 cells per well for determination of cellular viability using the MTT or LDH assay. After 96 hours (h) of culture in normal conditions, i.e. in an incubator at a temperature of 37° C. at 5% CO2, the BT-474 cells are treated for 48 h with DX101, DX107, and DX113 at 100 nM, 1 μM, 2.5 μM and 10 μM. A control is also carried out using the protocol described above but without treatment with the molecules DX101, DX107, DX113, DX117, DX119, DX121 or DX131.
(§2) After trypsin digestion for 10 minutes at 37° C., cell survival was quantified, also by a trypan blue assay with automatic counting with the Biorad TC20 equipment (TC20™ Automated Cell Counter). The trypan blue assay is based on the cell membrane integrity, which is broken in the dead cells. Trypan blue stains the dead cells blue. The Biorad TC20 cell counter counts the proportion of blue cells and non-blue cells, relative to the cell percentages. The percentage viability is then determined in each well relative to the untreated cells and the IC50 is determined as explained in the preceding example. The percentage viability of the BT-474 cells was determined using the MTT and LDH assay, carried out as described in the preceding example.

[4] = test system: BT-474 human mammary tumor cells; assay: Cytotoxicity on BT-474 cells, MTT; assay type: cell-based; conditions: BT-474, MTT, 48 h; for Mean LogIC50 (±SEM): log of IC50 in μM; for pIC50: Homo sapiens, read-out: IC50
Description: Cellular viability is measured by three different methods. For the first method, MTT labeling is carried out at 48 hours. This test is based on the use of the tetrazolium salt MTT (3-(4,5-dimethylthiazol-2-yl)-2,5-diphenyltetrazolium bromide). The tetrazolium is reduced by mitochondrial succinate dehydrogenase of active living cells, to formazan, a precipitate of a violet color. The quantity of precipitate formed is proportional to the quantity of living cells but also to the metabolic activity of each cell. […] After 48 hours, the medium is aspirated, and the cells are incubated with MTT (0.5 mg/ml in culture medium) for about 3 hours. The MTT solution is aspirated and the violet crystals are dissolved in dimethylsulfoxide (DMSO). The OD (optical density) is measured at 550 nm. The percentage viability is then determined in each well relative to the CTL and the IC50 (concentration for which there are still 50% of living cells) is determined for each molecule with Prism software using the nonlinear regression straight line (log(inhibitor) vs. Response).
as §1, §2

T1 sequence (Q15125 whole entry): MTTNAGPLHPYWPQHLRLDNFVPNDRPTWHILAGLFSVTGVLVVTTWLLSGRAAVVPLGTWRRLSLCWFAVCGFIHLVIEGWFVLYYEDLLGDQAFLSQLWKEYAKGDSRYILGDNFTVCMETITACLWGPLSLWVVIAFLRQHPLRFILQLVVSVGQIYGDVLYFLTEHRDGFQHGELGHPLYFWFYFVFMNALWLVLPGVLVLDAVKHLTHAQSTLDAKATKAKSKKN

SMILES | inhibition of ChEH activity [1] | Concentration max [2] [nM] | Area under curve [2] | Mean LogIC50 (±SEM) [3] | pIC50 [3] | Mean LogIC50 (±SEM) [4] | pIC50 [4]
CC(C)CCC[C@@H](C)[C@H]1CC[C@H]2[C@@H]3C[C@@H](NCCc4c[nH]cn4)[C@@]4(O)C[C@@H](O)CC[C@]4(C)[C@H]3CC[C@]12C [DX101, 5α-hydroxy-6β-[2-(1H-imidazol-4-yl)-ethylamino]-cholestan-3β-ol, reference compound] | almost total (trace of CT) | 140 | 143297 | 0.99 ± 0.06 | 5.01 | 0.85 ± 0.02 | 5.15
CCC(=O)O[C@H]1CC[C@]2(C)[C@H]3CC[C@]4(C)[C@@H]([C@H](C)CCCC(C)C)CC[C@H]4[C@@H]3C[C@@H](NCCc3c[nH]cn3)[C@@]2(O)C1 [DX107, 5α-hydroxy-6β-[2-(1H-imidazol-4-yl)ethylamino]cholestan-3β-yl propionate] | inhibition of ChEH is observed relative to the control (1), but it is less than the positive control (2) | 142 | 89733 | 0.95 ± 0.08 | 5.05 | 1.08 ± 0.04 | 4.92
